Key:
[1] = target: T1, amyloid (aggregated Aβ1-40) (Homo sapiens, UniProt P05067); assay: Measurement of amyloid affinity: in vitro binding test, inhibition of [125I]3′-I-BTA-0 binding
T1 construct: Aβ1-40 (Peptide Institute) was dissolved in phosphate buffer (pH 7.4); purchased Peptide Institute
Protocol: Affinity of the present compounds with amyloid was examined by the following in vitro binding tests.
(1) Aβ1-40 (Peptide Institute) was dissolved in phosphate buffer (pH 7.4) and shaken at 37° C. for 62-72 hours, to obtain a suspension of aggregated Aβ (concentration: 1 mg/mL equivalent, hereinafter referred to as amyloid suspension in these Examples).
(3) According to the method described in a literature (Wang, Y., et al., J. Labeled Compounds Radiopharmaceut. 44, 5239 (2001)), [^125I]2-(3′-iodo-4′-aminophenyl)benzothiazole (hereinafter referred to as [^125I]3′-I-BTA-0) was prepared from a labeling precursor 2-(4′-aminophenyl)benzothiazole, and dissolved in ethanol. [^125I]sodium iodide of 12-71 MBq (10-30 μL in volume) was used for the production, to obtain [^125I]3′-I-BTA-0 of 1-22 MBq immediately after the synthesis.
(5) Samples in which [^125I]3′-I-BTA-0, each compound for evaluation and amyloid were dissolved in a 0.1% bovine serum albumin-containing phosphate buffer (pH 7.4) at final concentrations shown in Table 2 were prepared. The resulting samples were placed in each well (about 0.3 mL in volume) of a 96-well microplate.
(6) The microplate filled with the sample solutions was shaken at a given rate (400 rpm) at 22° C. for 3 hours. Then, each sample solution was filtered through a glass fiber filter (trade name: Mulutiscreen™-FC, manufactured by Millipore), to separate the [^125I3′-I-BTA-0 attached to amyloid from the [^125I]3′-I-BTA-0 free from amyloid.
(7) The glass fiber filter used for the filtration of each sample solution was washed with a 0.1% bovine serum albumin-containing phosphate buffer (pH 7.4) (0.5 mL×5), and radioactivity of the glass fiber filter was measured with an autowell gamma system (manufactured by Aloka, Type: ARC-301B).
(8) Separately, a solution containing 15 μmol/L of 6-Me-BTA-2, 400 pmol/L of [^125I]3′-I-BTA-0 and 1 μmol/L of Aβ1-40 in a 0.1% bovine serum albumin-containing phosphate buffer (pH 7.4) was prepared and subjected to the same procedures as described above in (6) and (7) to measure a radioactivity level. The measured radioactivity level was defined as the background radioactivity level, and used in the calculation of the inhibition ratio (hereinafter referred to as BG).
(9) Using the radioactivity levels measured above in (7) and (8), the inhibition ratio was determined by the following formula (1).
A graph in which values converted by probit transformation from the obtained inhibition ratios were plotted relative to logarithms of concentrations of compounds for evaluation was prepared to obtain an approximate straight line by the least square method. Using the line, the concentration of each compound for evaluation was determined, at which the radioactivity level is half of the level of the sample free from each compound for evaluation, and was defined as a 50% inhibition concentration of each compound (hereinafter referred to as IC50% value). Using the value as an indicator, affinity of each compound for evaluation with amyloid (aggregated Aβ1-40) was evaluated.

[2] = tested on: Salmonella typhimurium TA98 and TA100; assay: Reverse mutation test (Ames test), overall judgment; type: cell-based; conditions: TA98 and TA100, with and without S9mix
Protocol: (§1) In order to examine gene mutagenicity of Compounds 1, 2 and 4, reverse mutation test using Salmonella typhimurium TA98 and TA100 (hereinafter referred to as Ames test) was conducted.
(§2) The test was conducted without addition of S9mix and with addition of S9mix. Dimethylsulfoxide was used as a negative control. A positive control was 2-(2-furyl)-3-(5-nitro-2-furyl)acrylamide in case S9mix was not added, and 2-aminoanthracene in case S9 mix was added.
(§3) The amount of each sample to be added to the test plate was 7 dosages (geometric ratio 4) with the maximum dose being 5000 μg/plate. After a sample to be examined and a strain (TA98 or TA100), or a sample to be examined, S9mix and the strain were mixed together, the mixture was multilayered using soft agar on a medium of a test plate, and then incubated at 37° C. for 48 hours.
(§4) In order to examine gene mutagenicity of Compound 8, reverse mutation test using Salmonella typhimurium TA98 and TA100 (hereinafter referred to as Ames test) was conducted.
(§5) The test was conducted without addition of S9mix and with addition of S9mix. Dimethylsulfoxide was used as a negative control. A positive control was 2-(2-furyl)-3-(5-nitro-2-furyl)acrylamide in case S9mix was not added, and 2-aminoanthracene in case S9mix was added.
as §3, with “Compound 8” for “each sample”, “3)” for “4)”, “Compound 8” for “a sample to be examined”, “Compound 8,” for “a sample to be examined,”

amyloid (amylin) = target: T2, amyloid (amylin) (Homo sapiens, UniProt P10997); assay: Inhibition of binding of Thioflavin T to amyloid derived from amylin; conditions: Thioflavin T 5 μmol/L, amyloid 2.6 μmol/L
T2 construct: Amylin (human) (manufactured by Wako) was dissolved in phosphate buffer (pH 7.4); purchased Wako
T2 sequence (P10997 34-70 limits assumed): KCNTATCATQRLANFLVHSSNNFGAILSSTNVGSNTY
Protocol: Amylin is an amyloid accumulating in pancreas of type II diabetes.
(3) The amyloid suspension was dissolved in 50 mM phosphate buffer (pH 7.4) at a concentration of amylin of 15 μM.
(4) Samples in which each compound for evaluation and amyloid were dissolved in a 50 mM phosphate buffer (pH 7.4) at final concentrations shown in Table 9 were prepared.
(5) A sample in which 100 μL of 50 mM phosphate buffer (pH 7.4) and 50 μL of 50 mM glycin-NaOH buffer (pH 8.5) were mixed was made as a blank, and subjected to the same procedure as in (4) and used for a calculation of inhibition ratio (hereinafter referred to as BG).
(6) The microplate filled with the sample solutions was left to stand at room temperature for 30 hours. Then, fluorescence strength of each sample solution was measured (measurement conditions: excitation wavelength of 446nm, emission wavelength of 490 nm) with microplate reader (type: SPECTRA MAX GEMINI XS, manufactured by Molecular Devices) (hereinafter, A denotes the fluorescence strength in a sample with zero (0) concentration of each compound for evaluation, and B denotes the fluorescence strength in a sample with 1.5 μmol/L or higher concentration of each compound for evaluation).
(7) Using the fluorescence strength measured above in (6), the following formula (5): […]
was used to determine the inhibition ratio.

[3] = tested on: Salmonella typhimurium TA100; assay: Reverse mutation test (Ames test), TA100; type: cell-based; conditions: maximum 5000 μg/plate
Protocol: as §1, §2, §3, §4, §5
as §3, with “Compound 8” for “each sample”, “3)” for “4)”, “Compound 8” for “a sample to be examined”, “Compound 8,” for “a sample to be examined,”

[4] = tested on: Salmonella typhimurium TA98; assay: Reverse mutation test (Ames test), TA98; type: cell-based; conditions: maximum 5000 μg/plate
Protocol: as §1, §2, §3, §4, §5
as §3, with “Compound 8” for “each sample”, “3)” for “4)”, “Compound 8” for “a sample to be examined”, “Compound 8,” for “a sample to be examined,”

[5] = Partition coefficient based on the octanol extraction method (logPoctanol); conditions: octanol / 10 mmol/L phosphate buffer (pH 7.4), radioactivity count
Protocol: 10 μL each of the prepared sample solution was respectively added to 2 mL of octanol, further, 2 mL of 10 mmol/L phosphate buffer (pH 7.4) was added, and stirred for 30 seconds. […] Using the obtained radioactivity count, log Poctanol was calculated in accordance with the equation (2).

[6] = Transferability into brain and clearance (Examples II-11, II-12, Comparative Example II-1); conditions: rats, intravenous injection, three animals
Protocol: Using the Compounds 10 and 11, a time course change of radioactive accumulation in brain of male Wistar rats (7-week old) was measured.
The rats were sacrificed by bleeding from abdominal artery, and brains were removed and subjected to measurement of mass of brains and further subjected to measurement of radioactivity (hereinafter referred to as A in this Example) with a single channel analyzer (detector type: SP-20 manufactured by OHYO KOKEN KOGYO Co., Ltd.) 2, 5, 30 and 60 minutes after the injection. Also, radioactivity (hereinafter referred to as B in this Example) of the rest of the whole body was measured in the same manner as above. Using these measurement results, radioactive accumulation per unit weight of brain (% ID/g) at the respective time points were calculated in accordance with the following formula (4).
Three animals were used for experiment at the respective time points.

[7] = Transferability into brain and clearance (Example I-16, Comparative Example I-7); type: in vivo, male Wistar rats; conditions: rats, intravenous injection, two animals
Protocol: Using Compound 6, a time course change of radioactive accumulation in brain of male Wistar rats (7-week old) was measured.
Also, radioactivity (hereinafter referred to as B in this Example) of 0.05 mL of a 1000-fold diluted solution of the injected solution was measured in the same manner as above. Using these measurement results, radioactive accumulation per unit weight of brain (% ID/g) at the respective time points was calculated in accordance with the following formula (3).

[8] = up to 5000 μg/plate (geometric ratio 4)
[9] = Table 6, 7 dosages (geometric ratio 4)
[10] = Table 8, 7 dosages (geometric ratio 3)

T1 sequence (P05067 672-711 limits assumed): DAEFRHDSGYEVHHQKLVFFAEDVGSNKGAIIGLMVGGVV

Nc1ccc(-c2nc3ccccc3s2)cc1I [3′-I-BTA-0, 2-(3′-Iodo-4′-aminophenyl)benzothiazole, reference compound]
IC50 [1]: 0.0101 µM

Oc1ccc(-c2cn3cc(Br)ccc3n2)cc1 [Compound 1, 6-bromo-2-(4′-hydroxyphenyl)imidazo[1,2-a]pyridine]
Judgment in the Ames test (gene mutagenicity) [2, 8]: negative
Inhibition ratio (%) of binding of amyloid (amylin) to Thioflavin T (amyloid (amylin); compound 1.5 μmol/L): 8.7%
Inhibition ratio (%) of binding of amyloid (amylin) to Thioflavin T (amyloid (amylin); compound 15 μmol/L): 41.3%
Inhibition ratio (%) of binding of amyloid (amylin) to Thioflavin T (amyloid (amylin); compound 30 μmol/L): 27.0%
Mutagenicity, TA100, with addition of S9mix [3, 9]: Negative
Mutagenicity, TA100, without addition of S9mix [3, 9]: Negative
Mutagenicity, TA98, with addition of S9mix [4, 9]: Negative
Mutagenicity, TA98, without addition of S9mix [4, 9]: Negative
IC50 [1]: 0.0044 µM

Oc1ccc(-c2cn3cc(I)ccc3n2)cc1 [Compound 2, 2-(4′-hydroxyphenyl)-6-iodoimidazo[1,2-a]pyridine]
Judgment in the Ames test (gene mutagenicity) [2, 8]: negative
Inhibition ratio (%) of binding of amyloid (amylin) to Thioflavin T (amyloid (amylin); compound 1.5 μmol/L): 11.2%
Inhibition ratio (%) of binding of amyloid (amylin) to Thioflavin T (amyloid (amylin); compound 15 μmol/L): 16.3%
Inhibition ratio (%) of binding of amyloid (amylin) to Thioflavin T (amyloid (amylin); compound 30 μmol/L): 32.0%
Mutagenicity, TA100, with addition of S9mix [3, 9]: Negative
Mutagenicity, TA100, without addition of S9mix [3, 9]: Negative
Mutagenicity, TA98, with addition of S9mix [4, 9]: Negative
Mutagenicity, TA98, without addition of S9mix [4, 9]: Negative
IC50 [1]: 0.046 µM

Oc1ccc(-c2cn3cc(OCCCF)ccc3n2)cc1 [Compound 3, 6-(3′-fluoropropoxy)-2-(4′-hydroxyphenyl)imidazo[1,2-a]pyridine]
IC50 [1]: 0.0544 µM

Oc1ccc(-c2cn3cc(I)cnc3n2)cc1 [Compound 4, 2-(4′-hydroxyphenyl)-6-iodoimidazo[1,2-a]pyrimidine]
Judgment in the Ames test (gene mutagenicity) [2, 8]: negative
Mutagenicity, TA100, with addition of S9mix [3, 9]: Negative
Mutagenicity, TA100, without addition of S9mix [3, 9]: Negative
Mutagenicity, TA98, with addition of S9mix [4, 9]: Negative
Mutagenicity, TA98, without addition of S9mix [4, 9]: Negative
IC50 [1]: 0.0541 µM

Oc1ccc(-c2cn3cc([125I])ccc3n2)cc1 [Compound 5, [^125I]-2-(4′-hydroxyphenyl)-6-iodoimidazo[1,2-a]pyridine]
logPoctanol value [5]: 1.6

Cc1ccc2nc(-c3ccc(N(C)C)cc3)sc2c1 [Compound 6-Me-BTA-2, 6-methyl-2-[4′-(N,N-dimethylamino)phenyl]benzothiazole, reference compound]
IC50 [1]: 0.0254 µM

Oc1ccc(-c2cn3cc(I)ncc3n2)cc1 [Compound 8, 2-(4′-hydroxyphenyl)-6-iodoimidazo[1,2-a]pyrazine]
Judgment in the Ames test (gene mutagenicity) ([2]; up to 5000 μg/plate (geometric ratio 3)): negative
Mutagenicity, TA100, with addition of S9mix [3, 10]: Negative
Mutagenicity, TA100, without addition of S9mix [3, 10]: Negative
Mutagenicity, TA98, with addition of S9mix [4, 10]: Negative
Mutagenicity, TA98, without addition of S9mix [4, 10]: Negative

Oc1ccc(-c2cn3cc([123I])cnc3n2)cc1 [Compound 9, [^123I]-2-(4′-hydroxyphenyl)-6-iodoimidazo[1,2-a]pyrimidine]
logPoctanol value [5]: 1.7

Nc1c(/N=N/c2ccc(-c3ccc(/N=N/c4cc(S(=O)(=O)O)c5ccccc5c4N)cc3)cc2)cc(S(=O)(=O)O)c2ccccc12 [Congo-Red, reference compound]
IC50 [1]: > 1 µM

CN(C)c1ccc(-c2cn3cc([125I])ccc3n2)cc1 [[^125I]-IMPY, reference compound]
logPoctanol value [5]: 2.1

CN(C)c1ccc(-c2cn3cc([123I])ccc3n2)cc1 [^123I-IMPY, reference compound]
Radioactive accumulation in brain per unit weight ([6]; after 2 min.): 1.19 % ID/g
Radioactive accumulation in brain per unit weight ([6]; after 5 min.): 0.97 % ID/g
Radioactive accumulation in brain per unit weight ([6]; after 30 min.): 0.23 % ID/g
Radioactive accumulation in brain per unit weight ([6]; after 60 min.): 0.09 % ID/g
Radioactive accumulation in brain per unit weight ([7]; after 2 min.): 1.02 % ID/g
Radioactive accumulation in brain per unit weight ([7]; after 5 min.): 0.99 % ID/g
Radioactive accumulation in brain per unit weight ([7]; after 30 min.): 0.20 % ID/g
Radioactive accumulation in brain per unit weight ([7]; after 60 min.): 0.08 % ID/g

Source: patent publication US20100249408A1, “USE OF NOVEL COMPOUND HAVING AFFINITY FOR AMYLOID, AND PROCESS FOR PRODUCTION OF THE SAME” (NIHON MEDI-PHYSICS CO., LTD., priority 2007, published 2010)
